Results: patent US20050271588A1, “Liposome targeting of matrix metalloproteinase inhibitors” (priority 2001, published 2005)
Positions of bridges follow the written chain, without caps; N, C: chain ends. Residues, ends and D or L forms follow the SMILES beside them.

Tests used:
MMP-2 = target: T1, MMP-2 (Homo sapiens, UniProt P08253); test: Casein zymography, inhibition of MMP-2; format: biochemical; conditions: 85 μM peptide
T1 construct: purchased Boehringer Mannheim GmbH (Germany)
T1 sequence (P08253 110-660): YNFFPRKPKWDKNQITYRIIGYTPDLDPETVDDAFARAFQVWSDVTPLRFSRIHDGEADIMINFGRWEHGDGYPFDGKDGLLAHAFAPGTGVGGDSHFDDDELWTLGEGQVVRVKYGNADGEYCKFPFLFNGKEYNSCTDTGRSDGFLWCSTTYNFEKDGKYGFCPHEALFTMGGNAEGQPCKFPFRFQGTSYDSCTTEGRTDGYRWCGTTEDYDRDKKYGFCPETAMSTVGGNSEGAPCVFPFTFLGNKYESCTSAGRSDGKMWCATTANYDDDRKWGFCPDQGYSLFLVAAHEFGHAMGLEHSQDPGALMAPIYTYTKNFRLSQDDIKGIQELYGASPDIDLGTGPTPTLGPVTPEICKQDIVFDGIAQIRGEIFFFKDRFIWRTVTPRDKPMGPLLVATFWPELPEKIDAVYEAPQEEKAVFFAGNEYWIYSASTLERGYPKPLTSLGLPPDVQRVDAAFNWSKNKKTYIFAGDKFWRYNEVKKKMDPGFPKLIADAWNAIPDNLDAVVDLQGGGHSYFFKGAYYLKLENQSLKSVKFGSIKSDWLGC
Method: Assay for gelatinases. Inhibition of MMP-9 and MMP-2 by the different synthetic peptides was measured using casein zymography (Halinen et al., 1996). MMP-9 was purified as described (Sorsa et al., 1997). Subsequently, MMP-2 (2.5 μg) or MMP-9 (2.5 μg) was run on a 10% SDS-PAGE containing two mg/ml casein. The gel was first washed in Triton X-100 containing buffer to remove SDS, and it was cut into five slices which were immersed into peptide (CTT, CLP, CWL or STT) containing solutions (85 μM). After incubation for 48 hrs at 37° C., the gels were stained with Coomassie blue, scanned, and the digested areas quantitated using image analysis (Global Lab Image 3.2, Data Translation Inc. and Acuity Imaging Inc., Marlboro, Mass., USA).

MMP-9 = target: T2, MMP-9 (Homo sapiens, UniProt P14780); test: Gelatinase assay with fluorogenic peptide substrate; format: biochemical; conditions: fluorogenic substrate; text says 8 μM 'in both assays'; liposomes 200 μM POPC/POPE
T2 construct: made in house
T2 sequence (P14780 94-707): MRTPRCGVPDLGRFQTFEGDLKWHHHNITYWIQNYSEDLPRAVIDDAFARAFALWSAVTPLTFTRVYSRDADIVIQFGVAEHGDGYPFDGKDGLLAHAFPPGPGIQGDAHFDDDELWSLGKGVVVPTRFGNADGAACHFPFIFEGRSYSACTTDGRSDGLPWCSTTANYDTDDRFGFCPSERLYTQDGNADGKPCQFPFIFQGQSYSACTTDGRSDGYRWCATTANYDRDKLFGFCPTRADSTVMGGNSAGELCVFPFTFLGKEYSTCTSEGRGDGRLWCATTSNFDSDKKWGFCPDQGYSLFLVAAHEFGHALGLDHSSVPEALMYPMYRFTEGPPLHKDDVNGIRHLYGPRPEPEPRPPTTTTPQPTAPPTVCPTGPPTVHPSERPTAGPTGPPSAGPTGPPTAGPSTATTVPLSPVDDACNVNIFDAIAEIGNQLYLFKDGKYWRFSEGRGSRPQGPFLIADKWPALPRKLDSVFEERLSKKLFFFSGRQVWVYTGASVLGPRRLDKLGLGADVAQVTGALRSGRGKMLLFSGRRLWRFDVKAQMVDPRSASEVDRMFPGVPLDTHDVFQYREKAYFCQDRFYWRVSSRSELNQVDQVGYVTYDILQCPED
Method: The activity of MMP-9 was measured also using the fluorogenic peptide substrate MCA-Pro-Leu-Ala-Nva-Dpa-Ala-Arg (Calbiochem, San Diego, Calif., USA). More specifically, 50 ng of MMP-9 was preincubated in PBS for 30 min at RT in the absence or presence of CTT or its liposome complex. Subsequently, the fluorogenic substrate was added to a final concentration of 0.1 mM and the incubation was continued at 37° C. for 15 min, whereafter fluorescence intensities were measured with exitation at 340 nm and emission at 390 nm in a microtiter plate reader.

[1] = Trp fluorescence I350/I330 ratio; format: physicochemical
Method: Fluorescence spectroscopy. The environments of the tryptophan residues of CTT, STT, CLP, and CWL in liposomes were studied by fluorescence spectroscopy. The center of Trp fluorescence peak is at ˜350 nm when in water, whereas in a hydrophobic environment the emission is centered near 330 nm. Accordingly, changes in the microenvironment of Trp can be monitored by measuring I350/I330, the ratio of the emission at 350 nm to that at 330 nm (Lakowicz, 1999). Tryptophan fluorescence was recorded with a Perkin Elmer LS 50 B spectrofluorometer equipped with a magnetically stirred and thermostated cuvette compartment. […] Excitation and emission bandpasses were 10 nm and 10 nm, respectively. Excitation wavelength was 295 nm, and emission spectra were recorded in the range 300 to 400 nm. […]

[2] = test system: HT1080 fibrosarcoma cells; test: Uptake of liposome-encapsulated rhodamine B by HT1080 cells; format: cell-based, human; conditions: for Enhanced liposome uptake: HT1080
Method: In another series of experiments the water-soluble fluorescent marker rhodamine B was encapsulated into liposomes and its uptake by cells was measured. Samples for rhodamine B uptake were prepared by mixing 60 μl of POPC/POPE (80/20, mol/mol, one mM) liposomes containing 10 μM rhodamine B to 300 μl of DMEM medium supplemented with 10% fetal bovine serum, Glutamax I, penicillin 100 U/ml and streptomycin 0.1 mg/ml. Peptides were then added to obtain a final concentration of […]. Ten μl (10^5 cells) of medium containing the indicated cells were combined with the LUVs. After an incubation for 15 min at 37° C. or +4° C. liposomes not bound to the cells were removed from 96-well plates by rinsing three times with cold PBS. The +4° C. temperature served as a control for non-endocytotic liposome uptake by cells (Oess and Hildt, 2000). The relative amount of rhodamine B associated with the cells was determined using microplate reader with excitation at 535 nm and emission at 595 nm.
We also preincubated cells with phorbol ester (TPA) (50 nM). Preincubation times varied from 15 to 75 min. Treatment of cells by phorbol ester (TPA) increases both expression and secretion of MMP-9 (Toth et al., 1997). Results are presented as RFI=I/I0, where RFI is relative fluorescence intensity, I0 is the emission intensity for the control, 2 μM rhodamine B in LUVs without the peptides, and I is the rhodamine emission for the peptide-liposome complexes taken up by the cells. […] M-17 inhibits the binding of MMP-9 to the substrate and this inhibition is expected to be concentration dependent. […]
Cell cultures and fluorescence microscopy. […] Uptake of rhodamine B containing liposomes by the cultured cells was verified by fluorescence microscopy. An inverted fluorescence microscope (Zeiss IM 35) equipped with Nikon extra long working distance objectives (20×) and (40×) were used. […] Fluorescence images were viewed with a Peltier-cooled digital camera (C4742-95, Hamamatsu, Japan) connected to a computer and operated by software (Hipic 5.0) provided by the instrument manufacturer.

Inhibition of MMP-2 activity (MMP-2): approx. 70%
IC50 (MMP-9): 8 µM
I350/I330 of Trp residue ([1]; in PBS): 1.4
I350/I330 of Trp residue ([1]; presence of LUVs (0.5 mM total phospholipid)): 1.00
Structure (SMILES): CC(C)C[C@@H]1NC(=O)[C@H]([C@@H](C)O)NC(=O)[C@H](Cc2ccccc2)NC(=O)CNC(=O)[C@H](Cc2c[nH]c3ccccc23)NC(=O)[C@H](Cc2c[nH]cn2)NC(=O)[C@H]([C@@H](C)O)NC(=O)[C@H]([C@@H](C)O)NC(=O)[C@@H](N)CSSC[C@@H](C(=O)O)NC1=O [CTT] (H-CTTHWGFTLC-OH; disulfide 1-10; N-terminus and C-terminus assumed)
Enhanced liposome uptake ([2]; 4° C.): not at 4 °C
Enhanced liposome uptake ([2]; 37° C.): evident only at 37 °C
Rhodamine intake, fluorescence microscopy ([2]; HT 1080, liposomes with vs without CTT): enhanced
